Reference: US7329522B2, “Polyphosphate:AMP phosphotransferase” (Yamasa Corporation, priority 2002, dated 2008)

B1: polyphosphate:AMP phosphotransferase (protein, listed as Acinetobacter jobnsonii)
chain: MDTETIASAVLNEEQLSLDLIEAQYALMNTRDQSNAKSLVILVSGIELAGKGEAVKQLREWVDPRFLYVKADPPHLFNLKQPFWQPYTRFVPAEGQIMVWFGNWYGDLLATAMHASKPLDDTLFDEYVSNMRAFEQDLKNNNVDVLKVWFDLSWKSLQKRLDDMDPSEVHWHKLHGLDWRNKKQYDTLQKLRTRFTDDWQIIDGEDEDLRNHNFAQAILTALRHCPEHEKKAALKWQQAPIPDILTQFEVPQAEDANYKSELKKLTKQVADAMRCDDRKVVIAFEGMDAAGKGGAIKRIVKKLDPREYEIHTIAAPEKYELRRPYLWRFWSKLQSDDITIFDRTWYGRVLVERVEGFATEVEWQRAYAEINRFEKNLSSSQTVLIKFWLAIDKDEQAARFKARESTPHKRFKITEEDWRNRDKWDDYLKAAADMFAHTDTSYAPWYIISTNDKQQARIEVLRAILKQLKADRDTD
B2: galactokinase: E. coli galactokinase, partially purified enzyme solution (protein, UniProt P0A6T3 2-382, looked up)
Galactokinase: SLKEKTQSLFANAFGYPATHTIQAPGRVNLIGEHTDYNDGFVLPCAIDYQTVISCAPRDDRKVRVMAADYENQLDEFSLDAPIVAHENYQWANYVRGVVKHLQLRNNSFGGVDMVISGNVPQGAGLSSSASLEVAVGTVLQQLYHLPLDGAQIALNGQEAENQFVGCNCGIMDQLISALGKKDHALLIDCRSLGTKAVSMPKGVAVVIINSNFKRTLVGSEYNTRREQCETGARFFQQPALRDVTIEEFNAVAHELDPIVAKRVRHILTENARTVEAASALEQGDLKRMGELMAESHASMRDDFEITVPQIDTLVEIVKAVIGDKGGVRMTGGGFGGCIVALIPEELVPAVQQAVAEQYEAKTGIKETFYVCKPSQGAGQC

Columns and labels:
[1] = target: T1, PAP (polyphosphate:AMP phosphotransferase) (Acinetobacter johnsonii, UniProt Q83XD3); assay: Substrate specificity of PAP: NDP or dNDP produced from NMP or dNMP, measured by HPLC; assay type: biochemical; details: relative to phosphorylation of AMP = 100%; 5 mM NMP or dNMP, polyphosphate 10 mM, 100 mM MgCl2, pH 8.0, 37° C., 10 minutes
T1 construct: the PAP gene codes for the polypeptide (molecular weight: 55.8 kd) comprising 475 amino acids; made in house; host or cells: E. coli JM109 carrying plasmid pPAP2
Method: To 50 mM Tris HCl buffer solution (pH 8.0) containing 100 mM MgCl2, polyphosphate (10 mM calculated in terms of inorganic phosphate), and 5 mM of various NMP or dNMP was added PAP at various concentration, and the solution was incubate at 37° C. for 10 minutes. The reaction was terminated by heat treatment at 100° C. for 1 minute, and the solution after the reaction was subjected to HPLC to measure the amount of the NDP or the dNDP produced. The specific activity of each NMP or dNMP is shown in Table 1 as a relative value in relation to the specific activity of the PAP in the phosphorylation of the AMP, which is assumed 100%.

[2] = target: T1, PAP (polyphosphate:AMP phosphotransferase); assay: Synthesis of NDP from NMP with PAP and polyphosphate, HPLC analysis; assay type: biochemical; details: 10 mM NMP, polyphosphate 30 mM, PAP 16 units/ml, 37° C., 30 minutes
[3] = tested on: PAP from Acinetobacter johnsonii; details: PAP obtained from Acinetobacter johnsonii, reported as AMP-specific; cited from earlier work
[4] = Adenylate kinase activity measurement (ADP from AMP and ATP, HPLC); assay type: biochemical; details: cell extract; 1 unit = 2 μmole ADP at 37° C. in 1 minute
Method: The unit of the adenylate kinase activity is the one measured and calculated by the procedure as described below. Sample enzyme is added the 50 mM Tris HCl buffer solution (pH 7.8) containing 10 mM magnesium chloride, 10 mM AMP, and 10 mM ATP, and the solution is incubated at 37° C. to promote the reaction, and the reaction is terminated by a 1 minute heating at 100° C. Amount of the ADP in the reaction solution is measured by using HPLC, and the activity of producing 2 μmole of ADP at 37° C. in 1 minute is designated 1 unit.
E. coli adenylate kinase was prepared by the procedure described in the document (Proc. Natl. Acad. Sci. USA, 97, 14168-14171 (2000)). However, the cell extract produced by ultrasonication was used for the enzyme solution, and the specific activity of the adenylate kinase in the enzyme solution was 12.5 units/mg protein.

[5] = PAP activity measurement (ADP produced from AMP and polyphosphate, HPLC); assay type: biochemical; details: partially purified by DEAE TOYOPEARL 650M; 1 unit = 1 μmole ADP at 37° C. in 1 minute
Method: The “unit” used herein is the unit measured under the following conditions, and 1 unit corresponds to the activity of producing 1 μmole of ADP at 37° C. in 1 minute.
Sample enzyme is added to 50 mM Tris HCl buffer solution (pH 7.8) containing 20 mM magnesium chloride, 10 mM AMP, and polyphosphate (30 mM calculated in terms of inorganic phosphate) and the reaction is allowed to proceed by incubating the temperature at 37° C., and the reaction is thereafter terminated by a heat treatment at 100° C. for 1 minute, and amount of ADP in the reaction solution is measured by high performance liquid chromatography (HPLC).
It is to be noted that this productivity corresponds to about 150 times the productivity of the Acinetobacter Johnsonii. PAP was partially purified by fractionating the extract by ion exchange chromatography using DEAE TOYOPEARL 650M (TOSO) (eluent: 50 mM Tris HCl (pH 7.8), concentration gradient of 0 to 0.5M NaCl), and the collected fraction was used for the enzyme sample. The specific activity of the PAP in the collected fraction was 80.5 units/mg protein.

[6] = pH stability of PAP (residual activity); assay type: physicochemical; details: pH in the range of 7 to 9; activity at pH 8 = 100%; 37° C., 10 minutes, 100 mM magnesium chloride
Method: PAP was incubated in either 50 mM maleate or 50 mM Tris HCl buffer solution of various pH at 37° C. for 10 minutes in the presence of 100 mM magnesium chloride to measure the residual activity. The residual activity was measured by allowing the reaction to take place at 37° C. for 10 minutes in the presence of 50 mM Tris buffer solution (pH 8.0), 100 mM magnesium chloride, 5 mM AMP, and polyphosphate (10 mM calculated in terms of inorganic phosphate), and measuring the resulting ADP by HPLC.

Optimal pH of PAP = assay type: biochemical; details: 37° C., 10 minutes, 5 mM AMP, polyphosphate 10 mM, 100 mM magnesium chloride
Method: The reaction was allowed to proceed in either 50 mM maleate or 50 mM Tris HCl buffer solution of various pH at 37° C. for 10 minutes in the presence of 100 mM magnesium chloride, polyphosphate (10 mM calculated in terms of inorganic phosphate), and 5 mM AMP to measure the amount of the ADP produced by HPLC.

[7] = Thermal stability of PAP (residual activity); assay type: physicochemical; details: 10 minutes, pH 8.0, in the presence of the polyphosphate
Method: PAP was incubated for 10 minutes in 50 mM Tris HCl buffer solution (pH 8.0) containing 100 mM magnesium chloride in the presence or absence of polyphosphate (10 mM calculated in terms of inorganic phosphate) in the bath at various temperatures to measure the residual activity by the procedure as described above.

[8] = Galactokinase activity measurement (galactose-1-phosphate produced, sugar analyzer); assay type: biochemical; details: partially purified; 1 unit = 1 μmole galactose-1-phosphate at 37° C. in 1 minute
Method: E. coli strain JM109 having the plasmid pDR540 containing E. coli galactokinase gene (Gene, 20, 231(1982), obtained from Pharmacia) was inoculated in 2xYT medium containing 100 μg/ml ampicillin, and the E. coli was cultivated at 37° C. with shaking. When the cell density reached 4×10^8/ml, IPTG was added to the culture medium to a final concentration of 1 mM, and the incubation was continued at 30° C. for another 5 hours. After completion of the cultivation, the cells were collected by centrifugation and suspended in 30 ml buffer solution (50 mM Tris HCl (pH 7.8), 1 mM EDTA). The cells were lyzed by ultrasonication, and bacterial residue was removed by further centrifugation. The solution collected was subjected to ion exchange chromatography using DEAE Toyopearl 650M (Toso) (eluent: 50 mM Tris HCl (pH 7.8), concentration gradient of 0 to 0.5M NaCl) for fractionation and partial purification of the galactokinase. The thus recovered fraction was used for the enzyme solution of galactokinase. […]
The unit of the glactokinase activity was the one measured and calculated by the procedure as described below. […] Amount of the galactose-1-phosphate in the reaction solution was measured by using a sugar analyzer (Dionex), and the activity of producing 1 μmole of galactose-1-phosphate at 37° C. in 1 minute was designated 1 unit.

| Molecule | Specific activity (relative value) [1] | NDP generated [2] | also measured |
| --- | --- | --- | --- |
| Nc1ccn([C@H]2C[C@H](O)[C@@H](COP(=O)(O)O)O2)c(=O)n1 [dCMP] | 0.008% |  |  |
| Nc1nc2c(ncn2[C@H]2C[C@H](O)[C@@H](COP(=O)(O)O)O2)c(=O)[nH]1 [dGMP] | 2.6% |  |  |
| Nc1ccn([C@@H]2O[C@H](COP(=O)(O)O)[C@@H](O)[C@H]2O)c(=O)n1 [CMP] | 0.09% | 0.98 mM CDP | phosphate-transfer by conventional PAP [3]: no phosphotransfer at all |
| Nc1ncnc2c1ncn2[C@@H]1O[C@H](COP(=O)(O)O)[C@@H](O)[C@H]1O [AMP, adenosine 5′-monophosphate] | 100% | 6.76 mM ADP |  |
| Nc1nc2c(ncn2[C@@H]2O[C@H](COP(=O)(O)O)[C@@H](O)[C@H]2O)c(=O)[nH]1 [GMP] | 10% | 7.16 mM GDP | phosphate-transfer by conventional PAP [3]: some phosphate-transfer |
| O=c1ccn([C@@H]2O[C@H](COP(=O)(O)O)[C@@H](O)[C@H]2O)c(=O)[nH]1 [UMP] | 0.13% | 0.85 mM UDP | phosphate-transfer by conventional PAP [3]: no phosphotransfer at all |
| Cc1cn([C@H]2C[C@H](O)[C@@H](COP(=O)(O)O)O2)c(=O)[nH]c1=O [TMP] | 0.012% |  |  |
| Nc1ncnc2c1ncn2[C@H]1C[C@H](O)[C@@H](COP(=O)(O)O)O1 [dAMP] | 18% |  |  |
| adenylate kinase: E. coli adenylate kinase, cell extract used as enzyme solution |  |  | specific activity of the adenylate kinase in the enzyme solution [4]: 12.5 units/mg protein |
| B1 |  |  | specific activity of the PAP in the collected fraction [5]: 80.5 units/mg protein; enzymatic activity (residual) after incubation at various pH [6]: ≥ 80%; optimal pH (Optimal pH of PAP): approximately 8.5; thermal stability: stable up to [7]: approximately 50 °C |
| B2 |  |  | specific activity of the galactokinase in the enzyme solution [8]: 6.5 units/mg protein |
